Assay results from ChEMBL document CHEMBL4376895.
Calls of active or inactive are those of the source. The rule behind the calls is not given here. Positions of bridges follow the written chain, without caps; N, C: chain ends. Residues, ends and D or L forms follow the SMILES beside them.

Experiments:
Format in all cases: cell-based
[1] = target: T1, Neuronal acetylcholine receptor; alpha4/beta4 (Rattus norvegicus) (UniProt P09483+P12392); experiment: Antagonist activity at rat alpha4beta4 nAChR expressed in Xenopus laevis oocytes assessed as inhibition of Ach-induced response up to 10 uM at -70 mV holding potential by two electrode voltage-clamp assay
[2] = target: T2, Neuronal acetylcholine receptor; alpha4/beta2 (Rattus norvegicus) (UniProt P09483+P12390); experiment: Antagonist activity at rat alpha4beta2 nAChR expressed in Xenopus laevis oocytes assessed as inhibition of Ach-induced response up to 10 uM at -70 mV holding potential by two electrode voltage-clamp assay
[3] = target: T3, Neuronal acetylcholine receptor; alpha2/beta4 (Rattus norvegicus) (UniProt P12389+P12392); experiment: Antagonist activity at rat alpha2beta4 nAChR expressed in Xenopus laevis oocytes assessed as inhibition of Ach-induced response up to 10 uM at -70 mV holding potential by two electrode voltage-clamp assay
[4] = target: T4, Neuronal acetylcholine receptor; alpha9/alpha10 (Homo sapiens) (UniProt Q9UGM1+Q9GZZ6); experiment: Antagonist activity at human alpha9alpha10 nAChR expressed in Xenopus laevis oocytes assessed as inhibition of Ach-induced response at 100 nM at -70 mV holding potential by two electrode voltage-clamp assay relative to control
[5] = target: Nicotinic acetylcholine receptor alpha9/alpha10 (Rattus norvegicus) (UniProt P43144+Q9JLB5); experiment: Antagonist activity at rat alpha9alpha10 nAChR expressed in Xenopus laevis oocytes assessed as inhibition of Ach-induced response at 10 nM at -70 mV holding potential preincubated for 5 mins followed by compound washout by two electrode voltage-clamp assay
[6] = target: T4, Neuronal acetylcholine receptor; alpha9/alpha10 (Homo sapiens); experiment: Antagonist activity at human alpha9alpha10 nAChR expressed in Xenopus laevis oocytes assessed as inhibition of Ach-induced response at 50 nM at -70 mV holding potential by two electrode voltage-clamp assay relative to control
[7] = target: T2, Neuronal acetylcholine receptor; alpha4/beta2 (Rattus norvegicus); experiment: Antagonist activity at rat alpha4beta2 nAChR expressed in Xenopus laevis oocytes assessed as inhibition of Ach-induced response at >10 uM at -70 mV holding potential by two electrode voltage-clamp assay
[8] = target: T3, Neuronal acetylcholine receptor; alpha2/beta4 (Rattus norvegicus); experiment: Antagonist activity at rat alpha2beta4 nAChR expressed in Xenopus laevis oocytes assessed as inhibition of Ach-induced response at >10 uM at -70 mV holding potential by two electrode voltage-clamp assay
[9] = target: T1, Neuronal acetylcholine receptor; alpha4/beta4 (Rattus norvegicus); experiment: Antagonist activity at rat alpha4beta4 nAChR expressed in Xenopus laevis oocytes assessed as inhibition of Ach-induced response at >10 uM at -70 mV holding potential by two electrode voltage-clamp assay

Row | Compound | inhibition [1] | inhibition [2] | inhibition [3] | inhibition [4] [%] | inhibition [5] | inhibition [6] [%] | inhibition [7] | inhibition [8] | inhibition [9]
1 | CC[C@H](C)[C@H](NC(=O)[C@H](CCCNC(=N)N)NC(=O)[C@H](CCCNC(=N)N)NC(=O)[C@@H]1CSSC[C@H](NC(=O)[C@H](Cc2ccc(O)cc2)NC(=O)[C@H](CCCNC(=N)N)NC(=O)CNC(=O)[C@H](CO)NC(=O)[C@H](CO)NC(=O)[C@H](CCCNC(=N)N)NC(=O)[C@H](C)NC(=O)[C@@H](N)[C@@H](C)O)C(=O)N[C@@H](CCCNC(=N)N)C(=O)N[C@@H](CO)C(=O)N2CCC[C@H]2C(=O)N[C@@H](Cc2ccc(O)cc2)C(=O)N[C@@H](CC(=O)O)C(=O)N[C@@H](CCCNC(=N)N)C(=O)N[C@@H](CCCNC(=N)N)C(=O)N[C@@H](CCCNC(=N)N)C(=O)N[C@@H](CCCNC(=N)N)C(=O)N[C@@H](Cc2ccc(O)cc2)C(=O)N1)C(=O)N[C@H](C(=O)N[C@@H](CC(=O)O)C(=O)N[C@@H](C)C(=O)N[C@@H](C)C(=O)N[C@H](C(=O)O)C(C)C)[C@@H](C)O | inactive | inactive | inactive |  |  |  |  |  | 
2 | CC[C@H](C)[C@H](NC(=O)[C@H](CCCNC(=N)N)NC(=O)[C@H](CCCNC(=N)N)NC(=O)[C@@H]1CSSC[C@H](NC(=O)[C@H](Cc2ccc(O)cc2)NC(=O)[C@H](CCCNC(=N)N)NC(=O)CNC(=O)[C@H](CO)NC(=O)[C@H](CO)NC(=O)[C@H](CCCNC(=N)N)NC(=O)[C@H](CO)NC(=O)[C@@H](N)[C@@H](C)O)C(=O)N[C@@H](CCCNC(=N)N)C(=O)N[C@@H](CO)C(=O)N2CCC[C@H]2C(=O)N[C@@H](Cc2ccc(O)cc2)C(=O)N[C@@H](CC(=O)O)C(=O)N[C@@H](CCCNC(=N)N)C(=O)N[C@@H](CCCNC(=N)N)C(=O)N[C@@H](CCCNC(=N)N)C(=O)N[C@@H](CCCNC(=N)N)C(=O)N[C@@H](Cc2ccc(O)cc2)C(=O)N1)C(=O)N[C@H](C(=O)N[C@@H](CC(=O)O)C(=O)N[C@@H](C)C(=O)N[C@@H](CO)C(=O)N[C@H](C(=O)O)C(C)C)[C@@H](C)O | inactive | inactive | inactive |  |  |  |  |  | 
3 | CC[C@H](C)[C@H](NC(=O)[C@H](CCCNC(=N)N)NC(=O)[C@H](CCCNC(=N)N)NC(=O)[C@H](C)NC(=O)[C@H](Cc1ccc(O)cc1)NC(=O)[C@H](CCCNC(=N)N)NC(=O)[C@H](CCCNC(=N)N)NC(=O)[C@H](CCCNC(=N)N)NC(=O)[C@H](CCCNC(=N)N)NC(=O)[C@H](CC(=O)O)NC(=O)[C@H](Cc1ccc(O)cc1)NC(=O)[C@@H]1CCCN1C(=O)[C@H](CO)NC(=O)[C@H](CCCNC(=N)N)NC(=O)[C@@H]1CSSC[C@H](NC(=O)[C@@H](N)[C@@H](C)O)C(=O)N[C@@H](CCCNC(=N)N)C(=O)N[C@@H](CO)C(=O)N[C@@H](CO)C(=O)NCC(=O)N[C@@H](CCCNC(=N)N)C(=O)N[C@@H](Cc2ccc(O)cc2)C(=O)N1)C(=O)N[C@H](C(=O)N[C@@H](CC(=O)O)C(=O)N[C@@H](C)C(=O)N[C@@H](C)C(=O)N[C@H](C(=O)O)C(C)C)[C@@H](C)O | inactive | inactive | inactive |  |  |  |  |  | 
4 | CC[C@H](C)[C@H](NC(=O)[C@H](CCCNC(=N)N)NC(=O)[C@H](CCCNC(=N)N)NC(=O)[C@H](CO)NC(=O)[C@H](Cc1ccc(O)cc1)NC(=O)[C@H](CCCNC(=N)N)NC(=O)[C@H](CCCNC(=N)N)NC(=O)[C@H](CCCNC(=N)N)NC(=O)[C@H](CCCNC(=N)N)NC(=O)[C@H](CC(=O)O)NC(=O)[C@H](Cc1ccc(O)cc1)NC(=O)[C@@H]1CCCN1C(=O)[C@H](CO)NC(=O)[C@H](CCCNC(=N)N)NC(=O)[C@@H]1CSSC[C@H](NC(=O)[C@@H](N)[C@@H](C)O)C(=O)N[C@@H](CCCNC(=N)N)C(=O)N[C@@H](CO)C(=O)N[C@@H](CO)C(=O)NCC(=O)N[C@@H](CCCNC(=N)N)C(=O)N[C@@H](Cc2ccc(O)cc2)C(=O)N1)C(=O)N[C@H](C(=O)N[C@@H](CC(=O)O)C(=O)N[C@@H](C)C(=O)N[C@@H](CO)C(=O)N[C@H](C(=O)O)C(C)C)[C@@H](C)O | inactive | inactive | inactive |  |  |  |  |  | 
5 | CC[C@H](C)[C@@H]1NC(=O)[C@H](CCCNC(=N)N)NC(=O)[C@H](CCCNC(=N)N)NC(=O)[C@@H](NC(=O)[C@H](Cc2ccc(O)cc2)NC(=O)[C@H](CCCNC(=N)N)NC(=O)[C@H](CCCNC(=N)N)NC(=O)[C@H](CCCNC(=N)N)NC(=O)[C@H](CCCNC(=N)N)NC(=O)[C@H](CC(=O)O)NC(=O)[C@H](Cc2ccc(O)cc2)NC(=O)[C@@H]2CCCN2C(=O)[C@H](CO)NC(=O)[C@H](CCCNC(=N)N)NC(=O)[C@H](C)NC(=O)[C@H](Cc2ccc(O)cc2)NC(=O)[C@H](CCCNC(=N)N)NC(=O)CNC(=O)[C@H](CO)NC(=O)[C@H](CO)NC(=O)[C@H](CCCNC(=N)N)NC(=O)[C@H](C)NC(=O)[C@@H](N)[C@@H](C)O)CSSC[C@@H](C(=O)N[C@H](C(=O)O)C(C)C)NC(=O)[C@H](C)NC(=O)[C@H](CC(=O)O)NC(=O)[C@H]([C@@H](C)O)NC1=O (H-TARSSGRYARSPYDRRRRYCRRITDACV-OH; disulfide 20-27) | inactive | inactive | inactive |  |  |  |  |  | 
6 | CC[C@H](C)[C@@H]1NC(=O)[C@H](CCCNC(=N)N)NC(=O)[C@H](CCCNC(=N)N)NC(=O)[C@H](C)NC(=O)[C@H](Cc2ccc(O)cc2)NC(=O)[C@H](CCCNC(=N)N)NC(=O)[C@H](CCCNC(=N)N)NC(=O)[C@H](CCCNC(=N)N)NC(=O)[C@H](CCCNC(=N)N)NC(=O)[C@H](CC(=O)O)NC(=O)[C@H](Cc2ccc(O)cc2)NC(=O)[C@@H]2CCCN2C(=O)[C@H](CO)NC(=O)[C@H](CCCNC(=N)N)NC(=O)[C@H](C)NC(=O)[C@H](Cc2ccc(O)cc2)NC(=O)[C@H](CCCNC(=N)N)NC(=O)CNC(=O)[C@H](CO)NC(=O)[C@H](CO)NC(=O)[C@H](CCCNC(=N)N)NC(=O)[C@@H](NC(=O)[C@@H](N)[C@@H](C)O)CSSC[C@@H](C(=O)N[C@H](C(=O)O)C(C)C)NC(=O)[C@H](C)NC(=O)[C@H](CC(=O)O)NC(=O)[C@H]([C@@H](C)O)NC1=O (H-TCRSSGRYARSPYDRRRRYARRITDACV-OH; disulfide 2-27) | inactive | inactive | inactive |  |  |  |  |  | 
7 | CC[C@H](C)[C@@H]1NC(=O)[C@H](CCCNC(=N)N)NC(=O)[C@H](CCCNC(=N)N)NC(=O)[C@H](CO)NC(=O)[C@H](Cc2ccc(O)cc2)NC(=O)[C@H](CCCNC(=N)N)NC(=O)[C@H](CCCNC(=N)N)NC(=O)[C@H](CCCNC(=N)N)NC(=O)[C@H](CCCNC(=N)N)NC(=O)[C@H](CC(=O)O)NC(=O)[C@H](Cc2ccc(O)cc2)NC(=O)[C@@H]2CCCN2C(=O)[C@H](CO)NC(=O)[C@H](CCCNC(=N)N)NC(=O)[C@H](CO)NC(=O)[C@H](Cc2ccc(O)cc2)NC(=O)[C@H](CCCNC(=N)N)NC(=O)CNC(=O)[C@H](CO)NC(=O)[C@H](CO)NC(=O)[C@H](CCCNC(=N)N)NC(=O)[C@@H](NC(=O)[C@@H](N)[C@@H](C)O)CSSC[C@@H](C(=O)N[C@H](C(=O)O)C(C)C)NC(=O)[C@H](C)NC(=O)[C@H](CC(=O)O)NC(=O)[C@H]([C@@H](C)O)NC1=O (H-TCRSSGRYSRSPYDRRRRYSRRITDACV-OH; disulfide 2-27) | inactive | inactive | inactive |  |  |  |  |  | 
8 | CC[C@H](C)[C@@H]1NC(=O)[C@H](CCCNC(=N)N)NC(=O)[C@H](CCCNC(=N)N)NC(=O)[C@@H](NC(=O)[C@H](Cc2ccc(O)cc2)NC(=O)[C@H](CCCNC(=N)N)NC(=O)[C@H](CCCNC(=N)N)NC(=O)[C@H](CCCNC(=N)N)NC(=O)[C@H](CCCNC(=N)N)NC(=O)[C@H](CC(=O)O)NC(=O)[C@H](Cc2ccc(O)cc2)NC(=O)[C@@H]2CCCN2C(=O)[C@H](CO)NC(=O)[C@H](CCCNC(=N)N)NC(=O)[C@H](CO)NC(=O)[C@H](Cc2ccc(O)cc2)NC(=O)[C@H](CCCNC(=N)N)NC(=O)CNC(=O)[C@H](CO)NC(=O)[C@H](CO)NC(=O)[C@H](CCCNC(=N)N)NC(=O)[C@H](CO)NC(=O)[C@@H](N)[C@@H](C)O)CSSC[C@@H](C(=O)N[C@H](C(=O)O)C(C)C)NC(=O)[C@H](C)NC(=O)[C@H](CC(=O)O)NC(=O)[C@H]([C@@H](C)O)NC1=O (H-TSRSSGRYSRSPYDRRRRYCRRITDACV-OH; disulfide 20-27) | inactive | inactive | inactive |  |  |  |  |  | 
9 | H-TARSSGRYARSPYDRRRRYARRITDAAV-OH | inactive | inactive | inactive |  |  |  |  |  | 
10 | H-TARSSGRYARSPYDRRRRYSRRITDASV-OH | inactive | inactive | inactive | 100 | Active | 74 | Active | Active | Active
11 | H-TSRSSGRYSRSPYDRRRRYARRITDAAV-OH | inactive | inactive | inactive |  |  |  |  |  | 
12 | H-TSRSSGRYSRSPYDRRRRYSRRITDASV-OH | inactive | inactive | inactive |  |  |  |  |  | 
